# Assay results as given in US8536214B2, “Indane derivatives as AMPA receptor modulators” (priority 2008, dated 2013).
# Biological target: T1, AMPA (GluR1) receptor (Homo sapiens, UniProt P42261)
# T1 construct: expressed in transfected cells; host or cells: HEK cells (HEK.GluR1(i)), kept under hygromycin selection
# Test: Ca2+ influx fluorescence assay (FLEXstation, Fluo-3)
# Format: cell-based
# Details: HEK.GluR1(i) cells, glutamate +/- test compound, Ca2+ influx measured with fluo3; read-out: EC50, positive modulation of the AMPA receptor
# Source text: The compounds in this invention may be tested using a biological assay which measures Ca^2+ influx mediated through positive modulation of the AMPA (GluR1) receptor using standard techniques in the art such as, but not limited to, a FLEXstation (manufactured by Molecular Devices, Sunnyvale, Calif.). An optical readout using fluorescent probes is employed to measure ion channel dependent changes in intracellular ion concentration or membrane potential. The assay utilises the Ca^2+ conductance of functional homomeric GluR1(i) AMPA receptors to generate glutamate-dependent Ca^2+ responses. Influx of Ca^2+ through the ion channel is measured indirectly through an increase in intracellular Ca^2+ levels using the calcium sensitive dye such as, but not limited to, Fluo-3 (Molecular Devices, Sunnyvale, Calif.) in FLEXstation. A positive AMPA receptor modulator, in the presence of glutamate, will result in an influx of Ca^2+ through the ion channel which can be measured indirectly through an increase in intracellular Ca2+ levels using the calcium sensitive dye Fluo-3 in FLEXstation.
# HEK.GluR1(i) cells were maintained in DMEM supplemented with 10% fetaclone II, 1% non-essential amino acids and 150 μg/mL hygromycin, at 37° C./5% CO2. […]
# T1 sequence (P42261 19-906 isoform P42261-2 limits assumed, species assumed): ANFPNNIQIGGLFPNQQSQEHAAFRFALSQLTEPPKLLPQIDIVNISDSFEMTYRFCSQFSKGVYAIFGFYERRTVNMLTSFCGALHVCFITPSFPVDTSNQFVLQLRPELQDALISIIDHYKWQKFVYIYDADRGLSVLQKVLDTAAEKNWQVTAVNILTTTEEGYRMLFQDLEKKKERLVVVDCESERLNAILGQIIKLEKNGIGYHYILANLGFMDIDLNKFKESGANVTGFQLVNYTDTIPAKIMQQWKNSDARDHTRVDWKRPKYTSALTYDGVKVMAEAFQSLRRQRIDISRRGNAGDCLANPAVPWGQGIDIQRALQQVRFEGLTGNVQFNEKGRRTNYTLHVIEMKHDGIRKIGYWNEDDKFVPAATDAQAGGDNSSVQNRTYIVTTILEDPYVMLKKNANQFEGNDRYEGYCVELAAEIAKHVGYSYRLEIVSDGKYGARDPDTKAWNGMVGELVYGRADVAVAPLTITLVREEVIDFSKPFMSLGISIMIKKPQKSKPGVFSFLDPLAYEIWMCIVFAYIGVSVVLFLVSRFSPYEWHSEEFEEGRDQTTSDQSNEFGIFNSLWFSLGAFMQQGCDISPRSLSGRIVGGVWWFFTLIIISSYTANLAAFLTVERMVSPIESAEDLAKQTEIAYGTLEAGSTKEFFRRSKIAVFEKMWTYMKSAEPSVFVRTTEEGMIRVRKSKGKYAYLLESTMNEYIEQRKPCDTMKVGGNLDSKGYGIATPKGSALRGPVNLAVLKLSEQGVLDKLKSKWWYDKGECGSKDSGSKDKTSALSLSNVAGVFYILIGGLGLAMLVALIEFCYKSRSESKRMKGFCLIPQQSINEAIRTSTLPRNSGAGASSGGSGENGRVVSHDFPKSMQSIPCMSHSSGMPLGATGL
compound,measurement,value
"O=S(=O)(N[C@H]1Cc2ccc(Cn3cc(CO)c(C(F)(F)F)n3)cc2C1)c1ccco1 [Example 18, (S)—N-(5-((4-(hydroxymethyl)-3-(trifluoromethyl)-1H-pyrazol-1-yl)methyl)-2,3-dihydro-1H-inden-2-yl)furan-2-sulfonamide]",EC50,2500 nM
